According to ChEMBL document CHEMBL4028867, “Design, Synthesis, and Characterization of N-Oxide-Containing Heterocycles with in Vivo Sterilizing Antitubercular Activity” (J Med Chem, 2017):
≈ marks a conversion by molar mass, not a printed value.

Legend:
Format in all cases: functional
[1] = tested on: Mycobacterium tuberculosis; assay: Antitubercular activity against capreomycin resistant Mycobacterium tuberculosis H37Rv after 24 hrs by MABA method
[2] = tested on: Mycobacterium tuberculosis; assay: Antitubercular activity against streptomycin resistant Mycobacterium tuberculosis H37Rv ATCC 35820 after 24 hrs by MABA method; conditions: H37Rv ATCC 35820, 24 h
[3] = tested on: Mycobacterium tuberculosis; assay: Antitubercular activity against bedaquiline resistant Mycobacterium tuberculosis H37Rv after 24 hrs by MABA method
[4] = tested on: Mycobacterium tuberculosis; assay: Antitubercular activity against moxifloxacin resistant Mycobacterium tuberculosis H37Rv after 24 hrs by MABA method
[5] = tested on: Mycobacterium tuberculosis; assay: Antitubercular activity against isoniazid resistant Mycobacterium tuberculosis H37Rv ATCC 35822 after 24 hrs by MABA method; conditions: H37Rv ATCC 35822, 24 h
[6] = tested on: Mycobacterium tuberculosis; assay: Antitubercular activity against rifampicin resistant Mycobacterium tuberculosis H37Rv ATCC 35838 after 24 hrs by MABA method; conditions: H37Rv ATCC 35838, 24 h

| SMILES | MIC90 [1] | MIC90 [2] | MIC90 [3] | MIC90 [4] | MIC90 [5] | MIC90 [6] |
| --- | --- | --- | --- | --- | --- | --- |
| NC(=O)c1c(COc2cccc(/C=N/NC(=O)c3ccncc3)c2)no[n+]1[O-] | > 262 µM | > 262 µM | 2.56 µM (≈ 0.979 µg/mL) | 1.22 µM (≈ 0.466 µg/mL) | > 262 µM | 2.31 µM (≈ 0.883 µg/mL) |
| NC(=O)c1c(COc2ccc(/C=N/NC(=O)c3ccncc3)cc2)no[n+]1[O-] | > 262 µM | > 262 µM | 6.38 µM (≈ 2.44 µg/mL) | 0.66 µM (≈ 0.252 µg/mL) | > 262 µM | 1.99 µM (≈ 0.761 µg/mL) |
| C[C@@H]1NC(=O)[C@@H](N)CNC(=O)[C@H]([C@H]2CCNC(=N)N2)NC(=O)/C(=C/NC(N)=O)NC(=O)[C@H](CNC(=O)C[C@@H](N)CCCN)NC1=O | 60.5 µM (≈ 39.5 µg/mL) | 1.72 µM (≈ 1.12 µg/mL) |  |  |  |  |
| NNC(=O)c1ccncc1 [ISONIAZID] | > 5 µM | > 5 µM | 0.23 µM (≈ 0.0315 µg/mL) | 0.28 µM (≈ 0.0384 µg/mL) | > 5 µM | 0.35 µM (≈ 0.048 µg/mL) |
| COc1nc2ccc(Br)cc2cc1[C@@H](c1ccccc1)[C@@](O)(CCN(C)C)c1cccc2ccccc12 [BEDAQUILINE] | 0.06 µM (≈ 0.0333 µg/mL) | 0.06 µM (≈ 0.0333 µg/mL) | 1.7 µM (≈ 0.944 µg/mL) | 0.06 µM (≈ 0.0333 µg/mL) | 0.01 µM (≈ 0.00556 µg/mL) | 0.01 µM (≈ 0.00556 µg/mL) |
| O=C(N/N=C/c1ccc2no[n+]([O-])c2c1)c1ccncc1 |  | 17 µM (≈ 4.81 µg/mL) | 1.2 µM (≈ 0.34 µg/mL) | 5.72 µM (≈ 1.62 µg/mL) | 8.59 µM (≈ 2.43 µg/mL) | 3.78 µM (≈ 1.07 µg/mL) |
| CO[C@H]1/C=C/O[C@@]2(C)Oc3c(C)c(O)c4c(O)c(c(/C=N/N5CCN(C)CC5)c(O)c4c3C2=O)NC(=O)/C(C)=C\C=C\[C@H](C)[C@H](O)[C@@H](C)[C@@H](O)[C@@H](C)[C@H](OC(C)=O)[C@@H]1C [RIFAMPIN] | 0.21 µM (≈ 0.173 µg/mL) | 0.03 µM (≈ 0.0247 µg/mL) | 0.04 µM (≈ 0.0329 µg/mL) |  | 0.01 µM (≈ 0.00823 µg/mL) | > 1 µM |
| COc1c(N2C[C@@H]3CCCN[C@@H]3C2)c(F)cc2c(=O)c(C(=O)O)cn(C3CC3)c12 [MOXIFLOXACIN] | 0.35 µM (≈ 0.141 µg/mL) | 0.36 µM (≈ 0.145 µg/mL) | 0.26 µM (≈ 0.104 µg/mL) | > 8 µM | 0.23 µM (≈ 0.0923 µg/mL) | 0.12 µM (≈ 0.0482 µg/mL) |
| NC(=O)c1c(COc2ccccc2/C=N/NC(=O)c2ccncc2)no[n+]1[O-] | > 262 µM | 27.4 µM (≈ 10.5 µg/mL) | 0.81 µM (≈ 0.31 µg/mL) | 0.81 µM (≈ 0.31 µg/mL) | > 262 µM | 0.44 µM (≈ 0.168 µg/mL) |
| CN[C@@H]1[C@H](O[C@H]2[C@H](O[C@H]3[C@H](O)[C@@H](O)[C@H](N=C(N)N)[C@@H](O)[C@@H]3N=C(N)N)O[C@@H](C)[C@]2(O)C=O)O[C@@H](CO)[C@H](O)[C@H]1O [STREPTOMYCIN] | 2.55 µM (≈ 1.48 µg/mL) | > 100 µM |  |  |  |  |
